Experimental findings from PMC3070406 (The Pediatric infectious disease journal, 2011) are described below.

Assay [1] deals with NA of influenza A (H3N2) virus isolates. The format is biochemical. The note with it: read-out: Susceptibility to oseltamivir (mean IC50 ± SD).
Assay [2] deals with NA of influenza A (H1N1) virus isolate. Format: biochemical. The note with it: read-out: Susceptibility to oseltamivir (mean IC50 ± SD).
A further assay has as its system matrix M2 protein. On the set-up: species or system influenza A (H3N2) virus.

Usually IC50 stands for the concentration at which inhibition is half-maximal. Consider `CCOC(=O)C1=C[C@@H](OC(CC)CC)[C@H](NC(C)=O)[C@@H](N)C1` [oseltamivir], for which the IC50 was determined as […] in assay [1] and […] in assay [2]. As to `NC12CC3CC(CC(C3)C1)C2` [amantadine], the “Susceptibility to adamantanes (S31N mutation in M2 protein)” value in the assay with matrix M2 protein is on record as “resistance”.
